Data set [1] in a line: Experimental log P octanol/water by UV-Vis spectroscopy assay. The settings on record: octanol/water (1:1), pH 7.
Experimental: (§1) In order to validate a prediction model, the experimental and theoretical log P of five anthraquinones were assessed. Theoretical values were determined using Chemicalize's online software from ChemAxon, and experimental values were determined by UV-Vis spectroscopy assay using the protocol below.
(§2) A 1:1 mixture of octanol and water (pH=7) was prepared 24 hours before the assay in a reparatory funnel. A precise amount of the product was then added, and sonicated until complete dissolution. The phases were then vigorously stirred and left for 6 hours. The two phases were then separated, the organic phase diluted and analysed by UV spectrophotometry using a calibration curve previously carried out. The aqueous phase was acidified and evaporated. The residue was dissolved in octanol for analysis in UV-Vis spectrophotometry with the same method.
Data set [2] can be described thus: UV-Visible analysis in methanol. The data set is classed as physicochemical. The conditions noted are these: for Colour: methanol solution; for log ε / λmax visible / L1/2: methanol; for log ε: log of average molar extinction coefficient, characterizes the strength of the colour; for λmax visible: maximum absorption in visible spectra 400-800 nm, 1 cm quartz cuvette, characterizes the colour; for L1/2: width measured at A/2, characterizes the brilliance of the colour. As to the method: UV-Visible analysis was carried on a Genesys10 UV photometer and recorded with the help of “VisionLite Scan” software. For each molecule, a certain amount was weighed with a precision balance and fully dissolved (under sonication if necessary) in methanol to obtain a mother solution at 1 mg/mL. Serial dilutions were performed to obtain samples in a range from 0.0025 mg/mL to 0.5 mg/mL. Samples were analyzed from 190 to 800 nm in a 1 cm quartz cuvette. For each concentration, the wavelength of maximum absorption in the visible spectra (400-800 nm) was recorded with a precision of 2 nm, and the width was measured at A/2. Additionally, molar extinction coefficient ε was calculated for each sample and the log of the average value presented. λmax visible characterizes the colour, L1/2 characterizes the brilliance of the colour, ε characterizes the strength of the colour.

For data set [3] the following is noted: pH 7.
Experimental: as §1, §2

In data set [1], `O=C1c2cccc(O)c2C(=O)c2c(O)cccc21` [1,8-dihydroxy anthraquinone] yielded a logP at 6 h of 3.4.
Same read-out and setting: in the case of `O=C1c2ccccc2C(=O)c2c1ccc(O)c2O` [Alizarin] it was 2.8; in that of `Cc1cc(O)c2c(c1)C(=O)c1cccc(O)c1C2=O` [Chrysophanic acid], 4.
Turning to `Cc1cc(O)cc2c1C(=O)c1c(O)cccc1C2=O` [Compound 5, 3,8-dihydroxy-1-methyl-anthracene-9,10-dione, reference compound], in data set [2], the Colour entry is listed as “Yellow”, the “log ε” value was 3.5, the λmax visible was determined as 408 nm and the L1/2 was determined as 94 nm. In data set [1], this compound showed a logP at 6 h of 3.2.
Take `COc1cc(C)c2c(c1)C(=O)c1cccc(O)c1C2=O` [Compound 6, 8-hydroxy-3-methoxy-1-methyl-anthracene-9,10-dione, reference compound]: in data set [2], the Colour result is “Stronger yellow”, the “log ε” value is recorded as 3.62, the λmax visible is on record as 406 nm and the L1/2 is given as 81 nm.
The like results for `Cc1c(C(=O)O)c(O)cc2c1C(=O)c1c(O)cccc1C2=O` [Compound 7, 3,8-dihydroxy-1-methyl-9,10-dioxo-anthracene-2-carboxylic acid, reference compound] were, in that order, “Yellow”, 3.9, 408 nm and 86 nm.
The corresponding values for `Cc1cc(N)cc2c1C(=O)c1c(O)cccc1C2=O` [Compound 8, 3-amino-8-hydroxy-1-methyl-anthracene-9,10-dione] are “Orange”, 2.44, 452 nm and 142 nm.
As for `Cc1cc(Nc2ccccc2)cc2c1C(=O)c1c(O)cccc1C2=O` [Compound 9, 3-anilino-8-hydroxy-1-methyl-anthracene-9,10-dione], in data set [2], the Colour result is given as ““Carmine-like” red”, the “log ε” value came out at 2.25, the λmax visible was 480 nm and the L1/2 was 104 nm.
On to `Cc1cc(Nc2ccccc2)cc2c1C(=O)c1c(Nc3ccccc3)cccc1C2=O` [Compound 10, 3,8-dianilino-1-methyl-anthracene-9,10-dione], for which, in data set [2], the Colour entry is listed as “Purple/red purplish”, the “log ε” value was 2.72, the λmax visible is on record as 496 nm and the L1/2 is on record as 152 nm.
Regarding `CC(=O)Nc1cccc(Nc2cc(C)c3c(c2)C(=O)c2cccc(Nc4cccc(NC(C)=O)c4)c2C3=O)c1` [Compound 11, N-(3-((6-(3-acetamidoanilino)-8-methyl-9,10-dioxo-1-anthryl)amino)phenyl) Acetamide], in data set [2], the Colour result is on record as “Purple”, the “log ε” value turned out to be 2.8, the λmax visible turned out to be 510 nm and the L1/2 came to 128 nm.
As for `Cc1cc(NC2CCCCC2)cc2c1C(=O)c1c(NC3CCCCC3)cccc1C2=O` [Compound 12, 3,8-bis(cyclohexylamino)-1-methyl-anthracene-9,10-dione], in data set [2], the Colour result was “Purple”, the “log ε” value was 2.46, the λmax visible amounted to 524 nm and the L1/2 was 94 nm.
In the case of `Cc1ccc(S(=O)(=O)Oc2cccc3c2C(=O)c2c(C)cc(Nc4ccccc4)cc2C3=O)cc1` [Compound 14, (6-anilino-8-methyl-9,10-dioxo-1-anthryl)-4-methylbenzenesulfonate], in data set [2], the Colour result is given as “Red-purple”, the “log ε” value was found to be 3.12, the λmax visible is on record as 508 nm and the L1/2 was determined as 104 nm.
With `Cc1cc(O)c(N)c2c1C(=O)c1c(O)cccc1C2=O` [Compound 17b, 1-amino-2,5-dihydroxy-4-methyl-anthracene-9,10-dione], in data set [2], the Colour result is given as “Purple”, the “log ε” value amounted to 3.41, the λmax visible came to 498 nm and the L1/2 is given as 100 nm.
Consider `Cc1c(C(=O)O)c(O)c(N)c2c1C(=O)c1c(O)ccc(N)c1C2=O` [Compound 19b, 4,5-diamino-3,8-dihydroxy-1-methyl-9,10-dioxo-anthracene-2-carboxylic acid], for which, in data set [2], the Colour entry was “Purple”, the “log ε” value is on record as 3.25, the λmax visible is reported as 518 nm and the L1/2 was 106 nm.
For the compound Quinizarin, in data set [3], the “Measured logP” value was determined as 3.7.

Usually logP stands for the decadic logarithm of the partition coefficient of the neutral form, usually between octanol and water. Read a low logP as a more hydrophilic compound.
